Test results published in ChEMBL document CHEMBL4507269, “Data for DCP probe BAY-386” (2021).

Columns and labels:
[1] = biological target: T1, 5-hydroxytryptamine receptor 1A (Homo sapiens) (UniProt P08908); experiment: 5-HT1A (h) Eurofins-Cerep Cellular and Nuclear Receptor Functional Assays; conditions: Compound concentration 10.0 uM
T1 sequence (whole entry): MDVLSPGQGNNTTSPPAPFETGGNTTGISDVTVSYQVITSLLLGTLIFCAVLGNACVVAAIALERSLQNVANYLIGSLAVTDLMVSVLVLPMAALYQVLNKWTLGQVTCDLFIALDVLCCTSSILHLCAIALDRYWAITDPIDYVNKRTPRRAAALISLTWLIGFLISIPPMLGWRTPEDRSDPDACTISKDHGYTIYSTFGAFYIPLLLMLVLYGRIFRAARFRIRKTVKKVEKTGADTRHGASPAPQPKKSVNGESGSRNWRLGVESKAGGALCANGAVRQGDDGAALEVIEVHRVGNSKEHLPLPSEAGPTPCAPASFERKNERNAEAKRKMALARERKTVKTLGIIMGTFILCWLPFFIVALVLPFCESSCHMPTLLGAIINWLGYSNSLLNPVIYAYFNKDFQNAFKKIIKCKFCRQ

[2] = biological target: 5-hydroxytryptamine receptor 2B (Homo sapiens) (UniProt P41595); experiment: 5-HT2B (h) Eurofins-Cerep Cellular and Nuclear Receptor Functional Assays; conditions: Compound concentration 10.0 uM
Sequence of 5-hydroxytryptamine receptor 2B (Homo sapiens) (P41595 whole entry): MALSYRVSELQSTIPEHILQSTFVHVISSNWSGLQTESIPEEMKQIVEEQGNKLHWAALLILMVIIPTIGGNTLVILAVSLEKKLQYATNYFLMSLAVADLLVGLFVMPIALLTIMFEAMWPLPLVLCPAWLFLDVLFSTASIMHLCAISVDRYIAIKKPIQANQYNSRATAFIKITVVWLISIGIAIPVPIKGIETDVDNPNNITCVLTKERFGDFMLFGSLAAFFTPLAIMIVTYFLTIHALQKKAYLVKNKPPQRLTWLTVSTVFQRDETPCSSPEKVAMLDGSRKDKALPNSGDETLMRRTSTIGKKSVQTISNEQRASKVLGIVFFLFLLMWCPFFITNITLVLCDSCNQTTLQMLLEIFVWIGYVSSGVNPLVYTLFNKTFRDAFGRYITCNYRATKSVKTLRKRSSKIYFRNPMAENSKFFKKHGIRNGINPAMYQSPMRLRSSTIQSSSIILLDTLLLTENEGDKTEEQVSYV

[3] = biological target: AP2-associated protein kinase 1 (Homo sapiens) (UniProt Q2M2I8); conditions: Compound concentration 1000.0 nM
[4] = system: Tyrosine-protein kinase ABL1 (Homo sapiens), P00519 [F317L]; conditions: Compound concentration 1000.0 nM
[5] = biological target: Bone morphogenetic protein receptor type-1B (Homo sapiens) (UniProt O00238); conditions: Compound concentration 1000.0 nM
Sequence of Bone morphogenetic protein receptor type-1B (Homo sapiens) (O00238 whole entry): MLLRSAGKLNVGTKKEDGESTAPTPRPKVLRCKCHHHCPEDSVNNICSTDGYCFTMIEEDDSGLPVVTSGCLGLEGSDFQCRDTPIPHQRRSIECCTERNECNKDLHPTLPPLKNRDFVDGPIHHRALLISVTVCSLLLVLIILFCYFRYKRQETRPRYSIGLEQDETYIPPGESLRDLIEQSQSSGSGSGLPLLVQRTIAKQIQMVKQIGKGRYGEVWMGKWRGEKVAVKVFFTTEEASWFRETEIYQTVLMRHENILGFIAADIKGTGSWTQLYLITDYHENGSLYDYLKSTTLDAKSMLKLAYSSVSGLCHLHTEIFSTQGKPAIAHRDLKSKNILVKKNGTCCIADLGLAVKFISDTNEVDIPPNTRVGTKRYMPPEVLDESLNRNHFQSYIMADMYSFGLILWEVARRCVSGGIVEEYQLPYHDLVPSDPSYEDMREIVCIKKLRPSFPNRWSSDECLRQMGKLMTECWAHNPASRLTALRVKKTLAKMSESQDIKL

[6] = biological target: Tyrosine-protein kinase BTK (Homo sapiens) (UniProt Q06187); conditions: Compound concentration 1000.0 nM
[7] = biological target: Calcium/calmodulin-dependent protein kinase type 1D (Homo sapiens) (UniProt Q8IU85); conditions: Compound concentration 1000.0 nM
[8] = biological target: Serine/threonine-protein kinase Chk2 (Homo sapiens) (UniProt O96017); conditions: Compound concentration 1000.0 nM
Sequence of Serine/threonine-protein kinase Chk2 (Homo sapiens) (O96017 whole entry): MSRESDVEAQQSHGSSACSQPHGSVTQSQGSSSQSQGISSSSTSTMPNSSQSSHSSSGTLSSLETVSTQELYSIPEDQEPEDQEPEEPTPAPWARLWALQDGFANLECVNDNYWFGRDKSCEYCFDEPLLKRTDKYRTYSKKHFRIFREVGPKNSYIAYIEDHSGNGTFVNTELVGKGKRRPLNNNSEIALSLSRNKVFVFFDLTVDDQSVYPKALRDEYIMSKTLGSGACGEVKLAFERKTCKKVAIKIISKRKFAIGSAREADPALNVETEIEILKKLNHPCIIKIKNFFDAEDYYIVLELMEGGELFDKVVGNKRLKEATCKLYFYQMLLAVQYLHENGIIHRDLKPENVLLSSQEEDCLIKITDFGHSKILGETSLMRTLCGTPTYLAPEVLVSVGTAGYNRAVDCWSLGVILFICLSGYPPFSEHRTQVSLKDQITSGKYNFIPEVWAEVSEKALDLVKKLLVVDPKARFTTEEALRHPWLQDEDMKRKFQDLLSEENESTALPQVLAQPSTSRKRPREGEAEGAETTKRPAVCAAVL

[9] = biological target: Casein kinase II subunit alpha (Homo sapiens) (UniProt P68400); conditions: Compound concentration 1000.0 nM
Sequence of Casein kinase II subunit alpha (Homo sapiens) (P68400 whole entry, looked up): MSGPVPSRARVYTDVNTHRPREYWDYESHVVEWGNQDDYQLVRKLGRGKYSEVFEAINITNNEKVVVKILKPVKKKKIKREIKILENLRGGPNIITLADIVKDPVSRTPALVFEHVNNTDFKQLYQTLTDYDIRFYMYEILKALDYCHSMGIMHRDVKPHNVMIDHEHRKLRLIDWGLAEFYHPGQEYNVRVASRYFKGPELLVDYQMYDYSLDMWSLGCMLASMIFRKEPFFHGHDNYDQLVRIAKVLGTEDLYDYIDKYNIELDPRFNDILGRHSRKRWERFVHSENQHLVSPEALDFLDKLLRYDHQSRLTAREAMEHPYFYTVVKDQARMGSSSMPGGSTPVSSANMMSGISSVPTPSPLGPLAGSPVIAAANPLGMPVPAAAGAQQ

[10] = biological target: Death-associated protein kinase 1 (Homo sapiens) (UniProt P53355); conditions: Compound concentration 1000.0 nM
[11] = biological target: Discoidin domain-containing receptor 2 (Homo sapiens) (UniProt Q16832); conditions: Compound concentration 1000.0 nM
[12] = biological target: Mitogen-activated protein kinase kinase kinase 12 (Homo sapiens) (UniProt Q12852); conditions: Compound concentration 1000.0 nM
[13] = biological target: Myotonin-protein kinase (Homo sapiens) (UniProt Q09013); conditions: Compound concentration 1000.0 nM
[14] = system: Epidermal growth factor receptor (Homo sapiens), P00533 [T790M]; conditions: Compound concentration 1000.0 nM
[15] = biological target: Ephrin type-A receptor 1 (Homo sapiens) (UniProt P21709); conditions: Compound concentration 1000.0 nM
[16] = biological target: Ephrin type-A receptor 4 (Homo sapiens) (UniProt P54764); conditions: Compound concentration 1000.0 nM
Sequence of Ephrin type-A receptor 4 (Homo sapiens) (P54764 whole entry): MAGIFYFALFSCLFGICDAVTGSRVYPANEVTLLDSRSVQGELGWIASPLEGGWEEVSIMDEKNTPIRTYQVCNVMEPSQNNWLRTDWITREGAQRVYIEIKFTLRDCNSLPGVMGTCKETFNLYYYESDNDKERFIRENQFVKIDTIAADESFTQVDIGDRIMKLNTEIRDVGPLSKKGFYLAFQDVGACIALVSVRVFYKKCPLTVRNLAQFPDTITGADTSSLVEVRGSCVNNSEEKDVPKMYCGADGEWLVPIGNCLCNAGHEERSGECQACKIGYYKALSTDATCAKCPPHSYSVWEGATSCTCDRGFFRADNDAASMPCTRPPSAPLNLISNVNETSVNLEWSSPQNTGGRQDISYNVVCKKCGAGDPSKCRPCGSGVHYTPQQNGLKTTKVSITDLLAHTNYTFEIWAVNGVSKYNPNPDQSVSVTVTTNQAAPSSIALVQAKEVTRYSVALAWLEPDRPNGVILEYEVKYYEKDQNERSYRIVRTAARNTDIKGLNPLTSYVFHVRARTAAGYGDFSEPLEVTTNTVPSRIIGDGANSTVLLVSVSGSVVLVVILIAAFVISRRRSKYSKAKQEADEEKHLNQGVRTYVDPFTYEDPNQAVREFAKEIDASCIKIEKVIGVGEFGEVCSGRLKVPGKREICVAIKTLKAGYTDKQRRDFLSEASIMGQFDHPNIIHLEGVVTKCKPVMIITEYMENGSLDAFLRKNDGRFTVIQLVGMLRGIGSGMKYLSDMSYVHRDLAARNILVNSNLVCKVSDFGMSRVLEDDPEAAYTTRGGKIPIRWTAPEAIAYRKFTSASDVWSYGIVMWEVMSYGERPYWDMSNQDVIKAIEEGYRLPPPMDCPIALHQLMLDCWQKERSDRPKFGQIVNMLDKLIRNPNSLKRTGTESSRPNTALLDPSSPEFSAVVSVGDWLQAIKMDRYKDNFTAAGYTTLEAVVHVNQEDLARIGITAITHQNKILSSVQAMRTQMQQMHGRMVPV

[17] = biological target: Mitogen-activated protein kinase 6 (Homo sapiens) (UniProt Q16659); conditions: Compound concentration 1000.0 nM
[18] = system: Receptor-type tyrosine-protein kinase FLT3 (Homo sapiens), P36888 [D835V]; conditions: Compound concentration 1000.0 nM
[19] = biological target: Receptor-type tyrosine-protein kinase FLT3 (Homo sapiens) (UniProt P36888); conditions: Compound concentration 1000.0 nM
[20] = biological target: Tyrosine-protein kinase Lyn (Homo sapiens) (UniProt P07948); conditions: Compound concentration 1000.0 nM
[21] = biological target: Mitogen-activated protein kinase kinase kinase kinase 4 (Homo sapiens) (UniProt O95819); conditions: Compound concentration 1000.0 nM
[22] = biological target: Mitogen-activated protein kinase kinase kinase kinase 5 (Homo sapiens) (UniProt Q9Y4K4); conditions: Compound concentration 1000.0 nM
Sequence of Mitogen-activated protein kinase kinase kinase kinase 5 (Homo sapiens) (Q9Y4K4 whole entry, looked up): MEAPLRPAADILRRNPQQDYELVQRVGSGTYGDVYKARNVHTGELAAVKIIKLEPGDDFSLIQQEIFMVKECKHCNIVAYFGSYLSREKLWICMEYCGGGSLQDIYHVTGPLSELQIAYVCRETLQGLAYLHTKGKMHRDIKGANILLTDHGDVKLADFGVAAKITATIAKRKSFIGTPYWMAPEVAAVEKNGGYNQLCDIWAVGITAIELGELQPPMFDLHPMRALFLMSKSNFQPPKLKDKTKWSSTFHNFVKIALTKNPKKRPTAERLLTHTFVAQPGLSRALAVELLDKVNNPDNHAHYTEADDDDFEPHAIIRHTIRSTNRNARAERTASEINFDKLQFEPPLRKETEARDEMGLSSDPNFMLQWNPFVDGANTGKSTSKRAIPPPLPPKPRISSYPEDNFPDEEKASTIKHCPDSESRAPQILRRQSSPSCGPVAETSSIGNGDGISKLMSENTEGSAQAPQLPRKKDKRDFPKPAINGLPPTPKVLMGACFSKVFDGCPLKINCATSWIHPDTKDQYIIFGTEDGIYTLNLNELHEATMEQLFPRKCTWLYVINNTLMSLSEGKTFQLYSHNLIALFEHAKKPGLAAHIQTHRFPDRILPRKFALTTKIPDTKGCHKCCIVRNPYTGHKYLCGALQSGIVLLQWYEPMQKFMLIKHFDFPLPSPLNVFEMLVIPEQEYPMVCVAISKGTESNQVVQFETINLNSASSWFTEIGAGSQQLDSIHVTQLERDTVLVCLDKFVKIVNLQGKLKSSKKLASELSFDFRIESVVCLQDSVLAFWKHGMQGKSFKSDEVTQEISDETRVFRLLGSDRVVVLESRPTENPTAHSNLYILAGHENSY

[23] = biological target: MAP/microtubule affinity-regulating kinase 3 (Homo sapiens) (UniProt P27448); conditions: Compound concentration 1000.0 nM
Sequence of MAP/microtubule affinity-regulating kinase 3 (Homo sapiens) (P27448 whole entry, looked up): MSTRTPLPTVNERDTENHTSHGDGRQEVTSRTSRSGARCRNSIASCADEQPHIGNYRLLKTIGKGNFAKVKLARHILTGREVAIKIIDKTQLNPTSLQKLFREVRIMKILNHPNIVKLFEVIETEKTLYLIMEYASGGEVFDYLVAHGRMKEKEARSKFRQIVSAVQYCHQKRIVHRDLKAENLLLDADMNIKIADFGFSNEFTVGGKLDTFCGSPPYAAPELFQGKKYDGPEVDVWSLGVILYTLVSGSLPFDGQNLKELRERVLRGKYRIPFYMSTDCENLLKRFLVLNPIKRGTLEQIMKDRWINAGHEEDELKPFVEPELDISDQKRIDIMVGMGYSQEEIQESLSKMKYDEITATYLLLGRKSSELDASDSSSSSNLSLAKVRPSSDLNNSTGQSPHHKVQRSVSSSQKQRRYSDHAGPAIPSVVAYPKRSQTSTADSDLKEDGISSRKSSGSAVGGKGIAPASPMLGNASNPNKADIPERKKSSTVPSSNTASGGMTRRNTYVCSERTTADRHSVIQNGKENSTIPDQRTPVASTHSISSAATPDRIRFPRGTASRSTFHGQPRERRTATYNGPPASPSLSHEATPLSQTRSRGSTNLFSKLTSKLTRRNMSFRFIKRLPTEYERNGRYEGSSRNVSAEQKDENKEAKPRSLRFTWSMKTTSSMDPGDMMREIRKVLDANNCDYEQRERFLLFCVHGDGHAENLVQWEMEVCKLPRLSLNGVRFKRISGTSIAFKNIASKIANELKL

[24] = biological target: Mitogen-activated protein kinase kinase kinase 9 (Homo sapiens) (UniProt P80192); conditions: Compound concentration 1000.0 nM
[25] = biological target: Myosin light chain kinase, smooth muscle (Homo sapiens) (UniProt Q15746); conditions: Compound concentration 1000.0 nM
[26] = biological target: Serine/threonine-protein kinase Nek9 (Homo sapiens) (UniProt Q8TD19); conditions: Compound concentration 1000.0 nM
[27] = system: Phosphatidylinositol 4,5-bisphosphate 3-kinase catalytic subunit alpha isoform (Homo sapiens), P42336 [Q546K]; conditions: Compound concentration 1000.0 nM
[28] = biological target: 1-phosphatidylinositol 3-phosphate 5-kinase (Homo sapiens) (UniProt Q9Y2I7); conditions: Compound concentration 1000.0 nM
[29] = system: Proto-oncogene tyrosine-protein kinase receptor Ret (Homo sapiens), P07949 [V804M]; conditions: Compound concentration 1000.0 nM
[30] = biological target: Ribosomal protein S6 kinase alpha-2 (Homo sapiens) (UniProt Q15349); conditions: Compound concentration 1000.0 nM
[31] = biological target: STE20/SPS1-related proline-alanine-rich protein kinase (Homo sapiens) (UniProt Q9UEW8); conditions: Compound concentration 1000.0 nM
[32] = biological target: Serine/threonine-protein kinase TAO1 (Homo sapiens) (UniProt Q7L7X3); conditions: Compound concentration 1000.0 nM
[33] = biological target: Tyrosine-protein kinase Tec (Homo sapiens) (UniProt P42680); conditions: Compound concentration 1000.0 nM
[34] = biological target: Testis-specific serine/threonine-protein kinase 1 (Homo sapiens) (UniProt Q9BXA7); conditions: Compound concentration 1000.0 nM
[35] = biological target: Serine/threonine-protein kinase WNK1 (Homo sapiens) (UniProt Q9H4A3); conditions: Compound concentration 1000.0 nM
[36] = biological target: Serine/threonine-protein kinase WNK3 (Homo sapiens) (UniProt Q9BYP7); conditions: Compound concentration 1000.0 nM
[37] = biological target: Mitogen-activated protein kinase kinase kinase 19 (Homo sapiens) (UniProt Q56UN5); conditions: Compound concentration 1000.0 nM
[38] = biological target: 5-hydroxytryptamine receptor 1B (Homo sapiens) (UniProt P28222); conditions: Compound concentration 10.0 uM
[39] = biological target: D(1B) dopamine receptor (Homo sapiens) (UniProt P21918); conditions: Compound concentration 10.0 uM
Sequence of D(1B) dopamine receptor (Homo sapiens) (P21918 whole entry): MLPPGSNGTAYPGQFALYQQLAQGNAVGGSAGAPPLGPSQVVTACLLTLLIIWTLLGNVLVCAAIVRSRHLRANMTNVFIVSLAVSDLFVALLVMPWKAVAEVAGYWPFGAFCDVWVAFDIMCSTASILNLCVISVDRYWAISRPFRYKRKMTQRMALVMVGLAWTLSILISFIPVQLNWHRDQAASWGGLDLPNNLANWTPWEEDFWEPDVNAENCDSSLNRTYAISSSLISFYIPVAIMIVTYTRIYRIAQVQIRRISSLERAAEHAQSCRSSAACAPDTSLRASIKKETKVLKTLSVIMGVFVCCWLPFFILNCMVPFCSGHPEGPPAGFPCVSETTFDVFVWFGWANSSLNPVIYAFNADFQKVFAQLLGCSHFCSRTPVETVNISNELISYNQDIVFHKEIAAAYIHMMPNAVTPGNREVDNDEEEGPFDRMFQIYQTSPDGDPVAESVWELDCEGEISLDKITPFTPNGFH

## O=C(N1CCS(=O)(=O)CC1)N1C[C@H](c2ccc(OC(F)(F)F)cc2)C[C@H](c2nc(C3CC3)no2)C1 [BAY-386]
[1]
  % Inhibition of Control Agonist Response (Mean n=2): 25.6%
  % of Control Agonist Response (Mean n=2): -0.2%
[2]
  % Inhibition of Control Agonist Response (Mean n=2): 7%
  % of Control Agonist Response (Mean n=2): 1.6%
[3]
  residual activity: 99%
[4]
  residual activity: 89%
[5]
  residual activity: 82%
[6]
  residual activity: 100%
[7]
  residual activity: 91%
[8]
  residual activity: 100%
[9]
  residual activity: 100%
[10]
  residual activity: 92%
[11]
  residual activity: 100%
[12]
  residual activity: 0%
[13]
  residual activity: 100%
[14]
  residual activity: 100%
[15]
  residual activity: 100%
[16]
  residual activity: 100%
[17]
  residual activity: 100%
[18]
  residual activity: 100%
[19]
  residual activity: 81%
[20]
  residual activity: 85%
[21]
  residual activity: 100%
[22]
  residual activity: 100%
[23]
  residual activity: 98%
[24]
  residual activity: 100%
[25]
  residual activity: 100%
[26]
  residual activity: 100%
[27]
  residual activity: 83%
[28]
  residual activity: 100%
[29]
  residual activity: 100%
[30]
  residual activity: 100%
[31]
  residual activity: 100%
[32]
  residual activity: 100%
[33]
  residual activity: 100%
[34]
  residual activity: 95%
[35]
  residual activity: 100%
[36]
  residual activity: 99%
[37]
  residual activity: 58%
[38]
  inhibition: 30.8%
[39]
  inhibition: 9.95%

## Cc1noc([C@H]2C[C@@H](c3ccc(C(F)(F)F)cc3)CN(C(=O)N3CCS(=O)(=O)C3)C2)n1 [BAY-448]
[1]
  % Inhibition of Control Agonist Response (Mean n=2): -23%
  % of Control Agonist Response (Mean n=2): 1.1%
[2]
  % Inhibition of Control Agonist Response (Mean n=2): -3%
  % of Control Agonist Response (Mean n=2): 0.4%
[3]
  residual activity: 100%
[4]
  residual activity: 100%
[5]
  residual activity: 100%
[6]
  residual activity: 96%
[7]
  residual activity: 100%
[8]
  residual activity: 100%
[9]
  residual activity: 86%
[10]
  residual activity: 100%
[11]
  residual activity: 74%
[12]
  residual activity: 92%
[13]
  residual activity: 100%
[14]
  residual activity: 77%
[15]
  residual activity: 89%
[16]
  residual activity: 100%
[17]
  residual activity: 100%
[18]
  residual activity: 91%
[19]
  residual activity: 100%
[20]
  residual activity: 100%
[21]
  residual activity: 100%
[22]
  residual activity: 100%
[23]
  residual activity: 100%
[24]
  residual activity: 100%
[25]
  residual activity: 87%
[26]
  residual activity: 100%
[27]
  residual activity: 100%
[28]
  residual activity: 100%
[29]
  residual activity: 100%
[30]
  residual activity: 100%
[31]
  residual activity: 95%
[32]
  residual activity: 100%
[33]
  residual activity: 100%
[34]
  residual activity: 100%
[35]
  residual activity: 86%
[36]
  residual activity: 76%
[37]
  residual activity: 77%
[38]
  inhibition: 4.16%
[39]
  inhibition: 22.6%
